Measurements as given in patent publication US20220071932A1, “Compositions and Methods Against Stress-Induced Affective Disorders and Their Associated Symptoms” (The Trustees of Columbia University in the City of New York, priority 2019, published 2022).

Columns and labels:
Type in all cases: in vivo
129S6/SvEv mice [1] = experiment: Open field (OF)
Experimental: The OF assay was administered as previously described (47). Briefly, motor activity was quantified in 4 Plexiglas open field boxes 43×43 cm^2 (MED Associates, Georgia, Vt.). Two sets of 16 pulse-modulated infrared photobeams on opposite walls 2.5-cm apart recorded x-y ambulatory movements. Activity chambers were computer interfaced for data sampling at 100-ms resolution. The computer defined grid lines that dividing center and surround regions, with the center square consisting of four lines 11 cm from the wall.

129S6/SvEv mice [2] = experiment: Novelty suppressed feeding (NSF); details: for Novelty Suppressed Feeding, Latency to feed in OF (sec), p (Fisher's LSD): FIG. 8P
Experimental: Testing was performed as previously described (47). Briefly, the NSF testing apparatus consisted of a plastic box (50×50×20 cm). The floor of which was covered with approximately 2 cm of wooden bedding and the arena was brightly lit (approximately 1000 lux). Mice were food restricted for 24 h prior to testing. At the time of testing, a single pellet of food (regular chow) was placed on a white paper platform positioned in the center of the box. Each animal was placed in a corner of the box, and a stopwatch was immediately started. The latency of the mice to begin eating in the arena was recorded Immediately after the latency was recorded, the food pellet was removed from the arena. The mice were then placed back into their home cage. The latency to eat and the amount of food consumed in 5 min were measured (home cage consumption), followed by an assessment of post-restriction weight. A Kaplan-Meier survival analysis was used due to the lack of normal distribution of data. The Mantel-Cox log-rank test was used to evaluate differences between the experimental groups.

129S6/SvEv mice [3] = experiment: Elevated plus maze (EPM); details: for distance travelled in the EPM / time spent in the open arms and center of the EPM: (R,S)-ketamine 30 mg/kg, FENM 10, 20 or 30 mg/kg
Experimental: Testing was performed as previously described (47). Briefly, the maze is a plus-cross-shaped apparatus consisting of four arms, two open and two enclosed by walls, linked by a central platform at a height of 50 cm from the floor. Mice were individually placed in the center of the maze facing an open arm and were allowed to explore the maze for 5 min. The time spent in and the number of entries into the open arms was used as an anxiety index. Videos were scored using ANY-maze behavior tracking software (Stoelting, Wood Dale, Ill.).

[4] = 1 week prior to CFC, (R,S)-ketamine 30 mg/kg, FENM 10, 20 or 30 mg/kg, vs saline
[5] = 5 min prior to CFC, (R,S)-ketamine 30 mg/kg, FENM 20 mg/kg, vs saline
[6] = Fisher's PLSD, drug 5 minutes after stress, (R,S)-ketamine 30 mg/kg vs. FENM 20 mg/kg
[7] = Fisher's PLSD, drug 5 minutes after stress, FENM 20 mg/kg, (R,S)-ketamine 30 mg/kg
[8] = Saline vs. FENM (20 mg/kg), cohort 5 min before re-exposure 1, FIG. 9L
[9] = non-stressed mice, FENM 20 mg/kg 1 hour before the start of the OF, vs saline
[10] = 5 min after context re-exposure 1, (R,S)-ketamine 30 mg/kg, FENM 20 mg/kg, vs saline
[11] = 5 minutes after CFC, re-exposure 1 day after training, (R,S)-ketamine 30 mg/kg, FENM 20 mg/kg, vs saline
[12] = 5 minutes prior to re-exposure 1, (R,S)-ketamine 30 mg/kg, FENM 20 mg/kg, vs saline
[13] = 5 minutes after CFC, re-exposure 5 days after training, vs saline

## NC12CC3CC(C1)CC(CCF)(C3)C2 [FENM, 1-amino-3-fluoroethyl-adamantane]
129S6/SvEv mice [1]; [4]
  distance travelled in the OF: did not alter
  time spent in the center of the OF arena: did not alter
129S6/SvEv mice [1]; 5 min after context re-exposure 1, FENM 20 mg/kg, vs saline
  time spent in the center of the OF: significantly increased
129S6/SvEv mice [1]; [5]
  distance travelled in the OF: did not alter
  time spent in the center of the OF arena: did not alter
129S6/SvEv mice [1]; (R,S)-ketamine (30 mg/kg) vs. FENM (20 mg/kg), cohort 5 min before re-exposure 1, FIG. 9L
  Open Field, Distance Travelled Min 1 (cm), p (Fisher's LSD): 0.0129
129S6/SvEv mice [1]; Fisher's PLSD after RMANOVA, drug 5 minutes after stress, (R,S)-ketamine 30 mg/kg vs. FENM 20 mg/kg, FIG. 3L
  p, Distance Travelled (cm), OF, (R,S)-ketamine vs. FENM: 0.8632
129S6/SvEv mice [1]; Fisher's PLSD after RMANOVA, drug 5 minutes after stress, FENM 20 mg/kg, (R,S)-ketamine 30 mg/kg, FIG. 3L
  p, Distance Travelled (cm), OF, Saline vs. drug: 0.7967
129S6/SvEv mice [1]; [6]
  p, Distance Travelled Min 1 (cm), OF, (R,S)-ketamine vs. FENM: 0.5911
  p, Distance Travelled Min 2 (cm), OF, (R,S)-ketamine vs. FENM: 0.8997
  p, Distance Travelled Min 3 (cm), OF, (R,S)-ketamine vs. FENM: 0.5565
  p, Distance Travelled Min 4 (cm), OF, (R,S)-ketamine vs. FENM: 0.7043
  p, Distance Travelled Min 5 (cm), OF, (R,S)-ketamine vs. FENM: 0.5847
  p, Distance Travelled Min 6 (cm), OF, (R,S)-ketamine vs. FENM: 0.7385
  p, Distance Travelled Min 7 (cm), OF, (R,S)-ketamine vs. FENM: 0.4416
  p, Distance Travelled Min 8 (cm), OF, (R,S)-ketamine vs. FENM: 0.7658
  p, Distance Travelled Min 9 (cm), OF, (R,S)-ketamine vs. FENM: 0.8899
  p, Distance Travelled Min 10 (cm), OF, (R,S)-ketamine vs. FENM: 0.9456
129S6/SvEv mice [1]; [7]
  p, Distance Travelled Min 1 (cm), OF, Saline vs. drug: 0.0158
  p, Distance Travelled Min 2 (cm), OF, Saline vs. drug: 0.0068
  p, Distance Travelled Min 3 (cm), OF, Saline vs. drug: 0.4093
  p, Distance Travelled Min 4 (cm), OF, Saline vs. drug: 0.4054
  p, Distance Travelled Min 5 (cm), OF, Saline vs. drug: 0.1372
  p, Distance Travelled Min 6 (cm), OF, Saline vs. drug: 0.5067
  p, Distance Travelled Min 7 (cm), OF, Saline vs. drug: 0.4644
  p, Distance Travelled Min 8 (cm), OF, Saline vs. drug: 0.0809
  p, Distance Travelled Min 9 (cm), OF, Saline vs. drug: 0.0040
  p, Distance Travelled Min 10 (cm), OF, Saline vs. drug: 0.5094
129S6/SvEv mice [1]; [8]
  Open Field, Distance Travelled Min 1 (cm), p (Fisher's LSD): 0.1253
  Open Field, Distance Travelled Min 2 (cm), p (Fisher's LSD): 0.0385
129S6/SvEv mice [1]; [9]
  distance travelled in the OF: comparable
  time in the center of the OF: comparable
  time in the periphery of the OF: comparable
129S6/SvEv mice [1]; t-test, Baseline, anxiety cohort, FENM 20 mg/kg, FIG. 7C
  p, Distance Travelled (cm), OF, Saline vs. FENM: 0.1878
129S6/SvEv mice [1]; t-test, Baseline, anxiety cohort, FENM 20 mg/kg, FIG. 7D
  p, Time in Center (sec), OF, Saline vs. FENM: 0.1241
129S6/SvEv mice [1]; t-test, Baseline, anxiety cohort, FENM 20 mg/kg, FIG. 7E
  p, Time in Periphery (sec), OF, Saline vs. FENM: 0.1225
129S6/SvEv mice [2]; [4]
  latency to feed in the open arena (NSF): did not alter
129S6/SvEv mice [2]; [10]
  latency to eat in the NSF arena: did not alter
  latency to eat in the homecage (NSF): did not alter
129S6/SvEv mice [2]; [5]
  latency to feed in the open arena (NSF): but not FENM, increased
129S6/SvEv mice [2]; [11]
  latency to feed in the home cage (NSF): did not alter
  latency to feed in the open arena (NSF): did not alter
129S6/SvEv mice [2]; 5 minutes after CFC, re-exposure 5 days after training, (R,S)-ketamine 30 mg/kg, FENM 10, 20 or 30 mg/kg, vs saline
  latency to feed in the open arena (NSF): did not alter
129S6/SvEv mice [2]; [12]
  latency to eat in the NSF arena: did not alter
  latency to eat in the homecage (NSF): did not alter
129S6/SvEv mice [2]; (R,S)-ketamine (30 mg/kg) vs. FENM (20 mg/kg)
  Novelty Suppressed Feeding, Latency to feed in OF (sec), p (Fisher's LSD): 0.0130
129S6/SvEv mice [2]; Baseline Anxiolytic, dose 20 mg/kg
  Behavior: Hypophagia: ↓
129S6/SvEv mice [2]; Log-rank (Mantel-Cox) test, Baseline, anxiety cohort, FENM 20 mg/kg, FIG. 7J
  p, Fraction of mice not eating in OF, NSF, Saline vs. FENM: 0.0210
129S6/SvEv mice [2]; Log-rank (Mantel-Cox) test, Baseline, anxiety cohort, FENM 20 mg/kg, FIG. 7K
  p, Fraction of mice not eating in HC, NSF, Saline vs. FENM: 0.7953
129S6/SvEv mice [2]; Saline vs. FENM (20 mg/kg)
  Novelty Suppressed Feeding, Latency to feed in OF (sec), p (Fisher's LSD): 0.4585
129S6/SvEv mice [2]; [9]
  latency to approach the pellet in the NSF arena: significantly decreased
  latency to eat in the homecage (NSF): did not alter
129S6/SvEv mice [2]; t-test, Baseline, anxiety cohort, FENM 20 mg/kg, FIG. 7L
  p, Change in Weight (g), NSF, Saline vs. FENM: 0.1661
129S6/SvEv mice [2]; t-test, Baseline, anxiety cohort, FENM 20 mg/kg, FIG. 7M
  p, Food Eaten (g), NSF, Saline vs. FENM: 0.0801
129S6/SvEv mice [3]; 1 week prior to CFC, vs saline
  distance travelled in the EPM: did not alter
  time spent in the open arms and center of the EPM: did not alter
129S6/SvEv mice [3]; [13]
  distance travelled in the EPM: did not alter
  time spent in the open arms and center of the EPM: did not alter
129S6/SvEv mice [3]; [9]
  time in the open arms, closed arms, and center of the EPM: comparable
129S6/SvEv mice [3]; t-test, Baseline, anxiety cohort, FENM 20 mg/kg, FIG. 7G
  p, Time in Open Arms (sec), EPM, Saline vs. FENM: 0.5729
129S6/SvEv mice [3]; t-test, Baseline, anxiety cohort, FENM 20 mg/kg, FIG. 7H
  p, Time in Closed Arms (sec), EPM, Saline vs. FENM: 0.5729
129S6/SvEv mice [3]; t-test, Baseline, anxiety cohort, FENM 20 mg/kg, FIG. 7I
  p, Time in Center (sec), EPM, Saline vs. FENM: 0.3211
